Measured values reported in patent publication US10231996B2, “Biocampatible polymer coated silver Prussian blue nanoparticles (SPB-NPs: Ag3[Fe(CN) 6])” (COUNCIL OF SCIENTIFIC & INDUSTRIAL RESEARCH, priority 2015, dated 2019).

How the values were obtained:
[1] = tested on: B16F10 aggressive murine melanoma tumor; test: In vivo B16F10 melanoma tumor model in C57BL6/J mice; settings: free Dox 2.5 mg/kg, after four IP injections, compared to SPB(1,1)NPs treated mice
Experimental: In vivo tumor model was carried out using male C57BL6/J mice (8-9 weeks old). Approximately, 2.5×10^5 B16F10 cells resuspended in 100 μL of sterile HBSS were subcutaneously injected to lower right abdomen of male mice. […] All the treatments were Intraperitoneally (IP) injected on alternate days over a period of 15 days. The volume of tumor was measured by using the formula (0.5×ab^2), where ‘a’ represents the longest dimension and ‘b’ represents the shortest dimension of the tumors. Also, the weight and picture of the tumors were taken after the sacrifice. […] The loss of body weight can correlate with the nonspecific side effects of Dox in normal physiological function.

E. coli [2] = test: Colony forming units (CFU), E. coli; assay type: cell-based; settings: positive control 2 mg/ml, 24 hours
Experimental: (§1) Streptomycin at 2 mg/ml concentration was used as positive control. The plated were incubated for 24 hours at 37° C. The number of colonies appeared on the surface of the LB agar plates were counted. […] We previously reported the antibacterial activity of biosynthesized silver nanoparticles (Mukherjee et al. Theranostics, 2014; 4: 316-335).

Bacillus subtilis = test: Colony forming units (CFU), Bacillus subtilis; assay type: cell-based; settings: positive control 2 mg/ml, 24 hours
Experimental: as §1

E. coli [3] = test: Measurement of lipid peroxidation; assay type: cell-based; settings: positive control; (sample O.D/Control O.D)×100
Experimental: Lipid peroxidation was measured according to standard protocol. […] 1.5 ml of 20% acetic acid (pH 3.5), 1.5 ml of 0.8% thiobarbituric acid (in 1.1% SDS) and 0.05 ml of 20% TCA were added and mixed thoroughly. The tubes were then incubated for 60 minutes at 100° C. and 5 ml of butanol was added to each tube. The tubes were then centrifuged at 4000 rpm for 15 minutes. The pink supernatant was measures at 532 nm. The % of lipid peroxidation was measured by using the following formula: % of lipid peroxidation=(sample O.D/Control O.D)×100.

Compound	body weight [1]	bacterial growth (colonies) (E. coli [2])	bacterial growth (colonies) (Bacillus subtilis)	lipid peroxidation (E. coli [3])
COc1cccc2c1C(=O)c1c(O)c3c(c(O)c1C2=O)C[C@@](O)(C(=O)CO)C[C@@H]3O[C@H]1C[C@H](N)[C@H](O)[C@H](C)O1 [Dox, doxorubicin]	significant loss of bodyweight	–	–	–
[H]/N=C(/N)N[C@H]1[C@H](O)[C@@H](O)[C@H](O[C@@H]2O[C@@H](C)[C@](O)(C=O)[C@H]2O[C@@H]2O[C@@H](CO)[C@H](O)[C@@H](O)[C@@H]2NC)[C@@H](N/C(N)=N\[H])[C@@H]1O [streptomycin]	–	bacterial colonies were observed	bacterial colonies were observed	60%
